# Assay results: article PMC9269349, “Characterization of Four New Compounds from Protea cynaroides Leaves and Their Tyrosinase Inhibitory Potential” (Plants, 2022)
# Biological target: mushroom tyrosinase (Agaricus bisporus, UniProt C7FF04)
# Experiment: Antityrosinase inhibition assay (L-tyrosine substrate, absorbance at 490 nm)
# Format: biochemical
# Conditions: against L-tyrosine substrate
# Method: The skin enzymatic inhibitory assay was executed during the study following the approach used by Curto et al. and Nerya et al.. Extracts and isolates were dissolved in dimethyl sulfoxide (DMSO) to a final concentration of 20 mg/mL. […] After incubation at room temperature for 5 min, 110 μL of the substrate (2 mM L-tyrosine) was added to each well. […] Incubation commenced for 30 min at room temperature by measuring the absorbance at 490 nm with the […]1.11).
# Chain of mushroom tyrosinase (G1K3P4 entry or part of it): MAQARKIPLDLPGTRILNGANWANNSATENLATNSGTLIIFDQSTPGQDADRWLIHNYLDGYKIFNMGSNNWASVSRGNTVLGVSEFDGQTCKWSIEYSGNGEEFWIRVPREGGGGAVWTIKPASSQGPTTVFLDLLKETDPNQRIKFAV
# Chain of mushroom tyrosinase (C7FF04 1-392): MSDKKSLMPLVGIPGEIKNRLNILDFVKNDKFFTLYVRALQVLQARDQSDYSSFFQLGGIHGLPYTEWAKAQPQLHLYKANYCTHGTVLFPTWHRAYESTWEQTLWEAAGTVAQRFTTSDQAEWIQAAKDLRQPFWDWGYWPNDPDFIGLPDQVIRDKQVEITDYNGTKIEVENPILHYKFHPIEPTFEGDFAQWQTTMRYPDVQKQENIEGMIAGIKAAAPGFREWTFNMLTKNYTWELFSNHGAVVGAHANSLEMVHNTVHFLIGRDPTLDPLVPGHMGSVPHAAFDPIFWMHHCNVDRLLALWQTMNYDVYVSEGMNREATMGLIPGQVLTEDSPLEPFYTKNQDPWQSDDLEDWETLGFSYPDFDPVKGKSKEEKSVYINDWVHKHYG
row,tyrosinase inhibitory activity (in words),SMILES
1,potent competitive tyrosinase inhibition,"O=c1c(O)coc(CO)c1O [Compound 8, 3-hydroxykojic acid]"
2,low inhibitory activity,O=C(OCC1OC(Oc2c(CO)occc2=O)C(O)C(O)C1O)c1ccc(O)cc1 (centres unmarked) [Compound 3]

# The remaining lines, values behind:
row,SMILES,tyrosinase inhibitory activity (in words)
1,"O=C(O)c1ccc(O)cc1 [Compound 6, 4-hydroxybenzoic acid]",weak activity
2,"O=C(O)c1ccc(O)c(O)c1 [Compound 7, 3,4-dihydroxybenzoic acid]",potent competitive tyrosinase inhibition
3,"OC[C@H]1OC[C@H](O)[C@@H](O)[C@@H]1O [Compound 5, 1,5-anhydro-D-glucitol]",weak activity
